Among the data in PMC3585409, “Structural Determinants for Activity and Specificity of the Bacterial Toxin LlpA” (PLoS Pathogens, 2013) are Kd values, retold here.

The term Kd denotes a measure of binding affinity in units of concentration.

The structures appear in SMILES notation. Where two headings read alike, the source gives them in different places.

Experiment [1] addresses T1, LlpABW (Pseudomonas putida, UniProt Q8GEJ9).
T1 construct: gene llpA; full-length, N-terminal His6 tag (pET28a, pCMPG6056), E. coli BL21(DE3); no signal peptide; N-domain Arg4-Pro135, C-domain Ala136-Gln253, hairpin Pro254-His275
Briefly: ITC. The class given is binding.

Experiment [2] has as its target T2, LlpABW (Pseudomonas putida, UniProt Q8GEJ9, V208Y).
T2 construct: gene llpA; full-length, N-terminal His6 tag (pET28a, pCMPG6056), E. coli BL21(DE3); no signal peptide; N-domain Arg4-Pro135, C-domain Ala136-Gln253, hairpin Pro254-His275
The experiment is described as follows: ITC. The class given is binding.

The mark [3] stands for this setting: bis-TRIS propane 20 mM, 200 mM NaCl, pH 7.0, 25°C, single-site fit n = 1, site III^C.

T1 sequence (Q8GEJ9 1-276): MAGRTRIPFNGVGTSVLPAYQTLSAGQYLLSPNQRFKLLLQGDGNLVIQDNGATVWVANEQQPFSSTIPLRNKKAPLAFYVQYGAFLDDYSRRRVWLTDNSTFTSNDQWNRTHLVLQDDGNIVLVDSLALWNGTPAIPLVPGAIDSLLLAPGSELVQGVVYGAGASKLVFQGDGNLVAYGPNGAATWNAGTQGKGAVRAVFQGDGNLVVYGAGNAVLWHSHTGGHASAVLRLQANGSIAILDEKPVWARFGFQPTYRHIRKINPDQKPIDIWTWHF
T2 sequence (Q8GEJ9 1-276, stated change not applied): as the sequence (Q8GEJ9 1-276) above

At LlpABW [1] (setting [3]), `CC(=O)N[C@H]1[C@H](O[C@@H]2[C@@H](OC[C@H]3OC(O)[C@@H](O)[C@@H](O[C@H]4O[C@H](CO)[C@@H](O)[C@H](O)[C@@H]4O[C@@H]4O[C@H](CO)[C@@H](O)[C@H](O)[C@H]4NC(C)=O)[C@@H]3O)O[C@H](CO)[C@@H](O)[C@@H]2O)O[C@H](CO)[C@@H](O)[C@@H]1O` (some centres unmarked) [GlcNAcβ(1–2)Manα(1–3)[GlcNAcβ(1–2)Manα(1–6)]Man] showed a Kd of 2.1 mM.

`OC[C@H]1O[C@H](O[C@@H]2C(O)O[C@H](CO)[C@@H](O)[C@@H]2O)[C@@H](O)[C@@H](O)[C@@H]1O` (some centres unmarked) [Manα(1–2)Man]: on LlpABW [1] (setting [3]), binding was characterised by a dissociation constant (Kd) of 42.4 mM. `OC[C@H]1O[C@H](O[C@H]2[C@H](O)[C@@H](CO)OC(O)[C@H]2O)[C@@H](O)[C@@H](O)[C@@H]1O` (some centres unmarked) [Manα(1–3)Man]: the dissociation constant (Kd) at LlpABW [1] (setting [3]) stood at 18.2 mM; at LlpABW [2] (setting [3]) it was 23 mM. Molecule `OC[C@H]1O[C@H](OC[C@H]2OC(O)[C@@H](O)[C@@H](O[C@H]3O[C@H](CO)[C@@H](O)[C@H](O)[C@@H]3O)[C@@H]2O)[C@@H](O)[C@@H](O)[C@@H]1O` (some centres unmarked) [Manα(1–3)[Manα(1–6)]Man] had a Kd at LlpABW [1] (setting [3]) of 10.1 mM. On the same count and under the same terms, the figure for `OC[C@H]1O[C@H](OC[C@H]2OC(O)[C@@H](O)[C@@H](O)[C@@H]2O)[C@@H](O)[C@@H](O)[C@@H]1O` (some centres unmarked) [Manα(1–6)Man] is 17.2 mM. For the molecule `CO[C@H]1O[C@H](CO)[C@@H](O)[C@H](O)[C@@H]1O` [methyl-α-D-mannopyranoside], the results for the Kd at LlpABW [1] (read-out: Kd) and at LlpABW [2] (read-out: Kd) were 45.9 mM and 58.8 mM, respectively.
